We go through two molecules from patent publication US7351858B2, “Ortho-substituted benzoic acid derivatives for the treatment of insulin resistance” (AstraZeneca AB, priority 2002, dated 2008).

This assay concerns the target T1, human PPAR alpha (Homo sapiens, UniProt Q07869).
T1 construct: expressed in transfected cells; host or cells: U2-OS (human osteogenic sarcoma), transient electroporation of a pSG5-based expression vector
T1 sequence (Q07869 239-466 limits assumed): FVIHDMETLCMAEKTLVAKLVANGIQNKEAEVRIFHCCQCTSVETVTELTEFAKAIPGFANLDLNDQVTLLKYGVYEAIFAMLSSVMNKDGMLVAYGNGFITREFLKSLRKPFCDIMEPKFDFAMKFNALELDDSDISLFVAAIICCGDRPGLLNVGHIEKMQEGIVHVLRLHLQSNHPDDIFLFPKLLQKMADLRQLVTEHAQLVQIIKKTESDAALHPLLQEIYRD
Kind of assay: GAL4-PPARα ligand binding domain luciferase reporter transactivation assay in transiently transfected U2-OS cells. Type of assay: cell-based. As to conditions: about 24 hours exposure, concentration giving 50% of maximal activation by reference compound ETYA. As to the method: U2-OS, (Osteogenic sarcoma, Human) was purchased from ATCC, USA. Cells were expanded and refrozen in batches from passage number six. Cells were cultured in Dulbecco's modified Eagle medium (DMEM) with 25 mM glucose, 2 mM glutamine or 4 mM L-alanyl-L-glutamine, 10% fetal calf serum, at 5% CO2. Phosphate buffered saline (PBS) without addition of calcium or magnesium was used. All cell culture reagents were from Gibco (USA) and 96-well cell culture plates were purchased from Wallach.
Standard recombinant DNA techniques were carried out as described by Ausubel (7). The Luciferase reporter vector, pGL5UAS (clone consists of five copies of the GAL4 DNA binding sequence, 5′-[…]-3′, cloned into the SacI/XhoI sites of pGL3-Promoter (Promega). The SacI/XhoI fragment carrying the UAS sites was constructed using annealed overlapping oligonucleotides.
Expression vectors used are based upon pSG5 (Stratagene). All vectors contain an EcoRI/NheI fragment encoding the DNA binding domain of GAL4 (encoding amino acid positions 1-145 of database accession number P04386) followed by an in-frame fusion to a fragment encoding the nuclear localisation sequence from T antigen of Polyoma Virus. […]
After adjustment of the amount of cell medium to 75 μl in each well, 50 μl test compound solution was added. […] After lysis, luciferase activity was measured in a 1420 Multiwell counter, Victor, from Wallach. […]
On the technique in general: A reporter such as luciferase makes a cellular process visible.

As usually defined, the EC50 is the concentration needed to bring the measured effect to its halfway point.

The molecule `CCN(Cc1ccc(Cl)cc1)C(=O)COc1ccc(CCSc2ccccc2C(=O)O)cc1` [Example 3, 2-{[2-(4-{2-[(4-chlorobenzyl)(ethyl)amino]-2-oxoethoxy}phenyl)ethyl]thio}benzoic acid] displayed an EC50 of 499 nM. Consider `CCN(Cc1ccc(C(F)(F)F)cc1)C(=O)COc1ccc(CCOc2ccccc2C(=O)O)cc1` [Example 5, 2-[2-(4-{2-[Ethyl(4-trifluoromethylbenzyl)amino]-2-oxoethoxy}phenyl)ethoxy]benzoic acid], for which the EC50 came out at 48 nM.
